From ChEMBL document CHEMBL1148865, “A long-acting selective neuropeptide Y2 receptor PEGylated peptide agonist reduces food intake in mice” (Bioorg Med Chem Lett, 2007)

Experiments:
[1] = target: T1, Neuropeptide Y receptor type 2 (Homo sapiens) (UniProt P49146); test: Agonist activity at human NPY2 receptor in KAN-TS cells at 1 uM by [35S]GTP-gamma-S binding assay; type: functional, cell-based
T1 sequence (whole entry): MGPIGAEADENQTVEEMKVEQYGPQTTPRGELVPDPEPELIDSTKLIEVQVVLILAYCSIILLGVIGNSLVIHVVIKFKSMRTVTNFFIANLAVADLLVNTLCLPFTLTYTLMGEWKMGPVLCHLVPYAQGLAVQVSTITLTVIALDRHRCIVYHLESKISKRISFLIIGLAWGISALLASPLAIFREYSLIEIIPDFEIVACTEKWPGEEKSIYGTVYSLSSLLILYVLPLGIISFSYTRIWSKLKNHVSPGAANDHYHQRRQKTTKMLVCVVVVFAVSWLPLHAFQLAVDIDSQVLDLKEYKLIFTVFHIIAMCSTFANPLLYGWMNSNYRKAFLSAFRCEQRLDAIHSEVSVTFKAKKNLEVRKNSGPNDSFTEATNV

[2] = target: T2, Neuropeptide Y receptor type 5 (Homo sapiens, UniProt Q15761); test: Displacement of [125I]PYY from human NPY5 receptor in HEK293 cells; type: cell-based
T2 sequence (Q15761 whole entry): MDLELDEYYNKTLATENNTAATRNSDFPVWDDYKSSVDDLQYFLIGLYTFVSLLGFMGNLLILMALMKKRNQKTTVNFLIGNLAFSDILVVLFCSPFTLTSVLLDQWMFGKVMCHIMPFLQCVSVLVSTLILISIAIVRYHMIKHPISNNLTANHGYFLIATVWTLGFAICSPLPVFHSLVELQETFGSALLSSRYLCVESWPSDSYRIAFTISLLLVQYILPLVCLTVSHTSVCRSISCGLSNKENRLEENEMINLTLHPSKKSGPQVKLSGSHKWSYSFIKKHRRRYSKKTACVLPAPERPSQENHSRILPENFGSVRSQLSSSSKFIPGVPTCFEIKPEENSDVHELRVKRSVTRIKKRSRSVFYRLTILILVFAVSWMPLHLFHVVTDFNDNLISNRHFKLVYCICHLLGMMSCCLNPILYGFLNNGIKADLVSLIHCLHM

[3] = target: T3, Neuropeptide Y receptor type 2 (Homo sapiens, UniProt P49146); test: Displacement of [125I]PYY from human NPY2 receptor in KAN-TS cells by SPA assay; type: cell-based
T3 sequence (P49146 whole entry): T1 sequence (whole entry)

[4] = target: T4, Neuropeptide Y receptor type 1 (Homo sapiens, UniProt P25929); test: Displacement of [125I]PYY from human NPY1 receptor in SK-N-MC cells; type: cell-based
T4 sequence (P25929 whole entry): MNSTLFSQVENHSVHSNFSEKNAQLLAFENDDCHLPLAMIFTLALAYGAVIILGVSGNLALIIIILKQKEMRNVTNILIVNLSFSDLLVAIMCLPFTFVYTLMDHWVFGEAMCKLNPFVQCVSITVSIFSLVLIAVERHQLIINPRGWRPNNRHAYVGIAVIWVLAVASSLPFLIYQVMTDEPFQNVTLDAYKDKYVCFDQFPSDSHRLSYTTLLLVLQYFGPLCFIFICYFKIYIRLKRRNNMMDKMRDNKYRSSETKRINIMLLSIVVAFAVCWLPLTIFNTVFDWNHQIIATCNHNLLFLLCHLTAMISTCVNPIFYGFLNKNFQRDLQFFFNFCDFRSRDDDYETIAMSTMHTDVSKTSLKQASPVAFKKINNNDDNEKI

[5] = target: T3, Neuropeptide Y receptor type 2; test: Agonist activity at human NPY2 receptor in KAN-TS cells by [35S]GTP-gamma-S binding assay; type: functional, cell-based
Mus musculus = test: Reduction of food intake in C57BL/6 mouse at 10 mg/kg, sc after 1 to 24 hrs; type: functional; set-up: scale not given: the % may be the effect or the level left; conditions: route subcutaneous

**Q.** Ac-CLRHYLNLLTRQRY-NH2 was tested. Which E/Emax [1] did it give?
**A.** 94%

**Q.** And the Ki [2]?
**A.** > 1000 nM

**Q.** What about the Ki [3] of the same substance?
**A.** 8.2 nM

**Q.** What about the Ki [4] of the same substance?
**A.** > 1000 nM

**Q.** What about the EC50 [5] of the same substance?
**A.** 33 nM

**Q.** With Ac-LRHYLNLLTRQRY-NH2 as the substance, how does the E/Emax [1] read?
**A.** 100%

**Q.** And the Ki [2]?
**A.** > 1000 nM

**Q.** And the Ki [3]?
**A.** 5 nM

**Q.** And the Activity (Mus musculus)?
**A.** 6%

**Q.** What about the Ki [4] of the same substance?
**A.** 210 nM

**Q.** What about the EC50 [5] of the same substance?
**A.** 6 nM

**Q.** What does the source list for Ac-LRHYLNLLTRQRYC-NH2?
**A.** E/Emax [1]: 81%; Ki [2]: > 1000 nM; Ki [3]: 200 nM; Ki [4]: > 1000 nM; EC50 [5]: 160 nM
